Assay results reported in patent publication US20120115877A1, “Facially Amphiphilic Compounds, Compositions, And Uses Thereof In Treating Cancer” (POLYMEDIX, INC., priority 2010, published 2012).

What was measured:
Type in all cases: cell-based, human
Conditions in all cases: 10 μM
K-562 = test: NCI-60 screen, Leukemia
Description: (§1) Several compounds were tested at single concentrations (10 μM) against 59 different human tumor cell lines, representing leukemia, melanoma and cancers of the lung, colon, brain, ovary, breast, prostate, and kidney (see, Table 3). The human tumor cell lines of the cancer screening panel were grown in RPMI 1640 medium containing 5% fetal bovine serum and 2 mM L-glutamine. For a typical screening experiment, cells were inoculated into 96 well microtiter plates in 100 μL at plating densities ranging from 5,000 to 40,000 cells/well depending on the doubling time of individual cell lines. After cell inoculation, the microtiter plates were incubated at 37° C., 5% CO2, 95% air and 100% relative humidity for 24 hours prior to addition of the compounds.
(§2) After 24 hours, two plates of each cell line were fixed in situ with TCA, to represent a measurement of the cell population for each cell line at the time of drug addition (Tz). Compounds were solubilized in dimethyl sulfoxide at 400-fold the desired final maximum test concentration and stored frozen prior to use. At the time of drug addition, an aliquot of frozen concentrate was thawed and diluted to twice the desired final maximum test concentration with complete medium containing 50 μg/ml gentamicin. Additional four, 10-fold or ½ log serial dilutions were made to provide a total of five compound concentrations plus control. Aliquots of 100 μl of these different drug dilutions were added to the appropriate microtiter wells already containing 100 μl of medium, resulting in the required final compound concentrations.
(§3) Following drug addition, the plates were incubated for an additional 48 hours at 37° C., 5% CO2, 95% air, and 100% relative humidity. For adherent cells, the assay was terminated by the addition of cold TCA. Cells were fixed in situ by the gentle addition of 50 μl of cold 50% (w/v) TCA (final concentration, 10% TCA) and incubated for 60 minutes at 4° C. The supernatant was discarded, and the plates were washed five times with tap water and air dried. Sulforhodamine B (SRB) solution (100 μl) at 0.4% (w/v) in 1% acetic acid was added to each well, and plates were incubated for 10 minutes at room temperature. After staining, unbound dye was removed by washing five times with 1% acetic acid and the plates were air dried. Bound stain was subsequently solubilized with 10 mM trizma base, and the absorbance was read on an automated plate reader at a wavelength of 515 nm. For suspension cells, the methodology was the same except that the assay was terminated by fixing settled cells at the bottom of the wells by gently adding 50 μl of 80% TCA (final concentration, 16% TCA). Using the seven absorbance measurements (time zero, (Tz), control growth, (C), and test growth in the presence of drug at the five concentration levels (Ti)), the percentage growth was calculated at each of the compound concentrations levels. Percentage growth inhibition was calculated as:
(§4) [(Ti−Tz)/(C−Tz)]×100 for concentrations for which Ti>/=Tz
(§5) [(Ti−Tz)/Tz]×100 for concentrations for which Ti<Tz.
(§6) Three dose response parameters were calculated for each compound. Growth inhibition of 50% (GI50) was calculated from [(Ti−Tz)/(C−Tz)]×100=50, which is the compound concentration resulting in a 50% reduction in the net protein increase (as measured by SRB staining) in control cells during the compound incubation. The compound concentration resulting in total growth inhibition (TGI) was calculated from Ti=Tz. The LC50 (concentration of compound resulting in a 50% reduction in the measured protein at the end of the compound treatment as compared to that at the beginning) indicating a net loss of cells following treatment was calculated from [(Ti−Tz)/Tz]×100=−50. Values were calculated for each of these three parameters if the level of activity was reached; however, if the effect was not reached or was exceeded, the value for that parameter was expressed as greater or less than the maximum or minimum concentration tested.

SR = test: NCI-60 screen, Leukemia
Description: as §1, §2, §3, §4, §5, §6

HL-60(TB) = test: NCI-60 screen, Leukemia
Description: as §1, §2, §3, §4, §5, §6

CCRF-CEM = test: NCI-60 screen, Leukemia
Description: as §1, §2, §3, §4, §5, §6

MOLT-4 = test: NCI-60 screen, Leukemia
Description: as §1, §2, §3, §4, §5, §6

HOP-92 = test: NCI-60 screen, Non-Small Cell Lung Cancer
Description: as §1, §2, §3, §4, §5, §6

NCI-H322M = test: NCI-60 screen, Non-Small Cell Lung Cancer
Description: as §1, §2, §3, §4, §5, §6

A549/ATCC = test: NCI-60 screen, Non-Small Cell Lung Cancer
Description: as §1, §2, §3, §4, §5, §6

HOP-62 = test: NCI-60 screen, Non-Small Cell Lung Cancer
Description: as §1, §2, §3, §4, §5, §6

EKVX = test: NCI-60 screen, Non-Small Cell Lung Cancer
Description: as §1, §2, §3, §4, §5, §6

NCI-H522 = test: NCI-60 screen, Non-Small Cell Lung Cancer
Description: as §1, §2, §3, §4, §5, §6

NCI-H460 = test: NCI-60 screen, Non-Small Cell Lung Cancer
Description: as §1, §2, §3, §4, §5, §6

NCI-H226 = test: NCI-60 screen, Non-Small Cell Lung Cancer
Description: as §1, §2, §3, §4, §5, §6

NCI-H23 = test: NCI-60 screen, Non-Small Cell Lung Cancer
Description: as §1, §2, §3, §4, §5, §6

OVCAR-3 = test: NCI-60 screen, Ovarian Cancer
Description: as §1, §2, §3, §4, §5, §6

OVCAR-4 = test: NCI-60 screen, Ovarian Cancer
Description: as §1, §2, §3, §4, §5, §6

OVCAR-5 = test: NCI-60 screen, Ovarian Cancer
Description: as §1, §2, §3, §4, §5, §6

OVCAR-8 = test: NCI-60 screen, Ovarian Cancer
Description: as §1, §2, §3, §4, §5, §6

NCI/ADR-RES = test: NCI-60 screen, Ovarian Cancer
Description: as §1, §2, §3, §4, §5, §6

SK-OV-3 = test: NCI-60 screen, Ovarian Cancer
Description: as §1, §2, §3, §4, §5, §6

IGROV1 = test: NCI-60 screen, Ovarian Cancer
Description: as §1, §2, §3, §4, §5, §6

HT29 = test: NCI-60 screen, Colon Cancer
Description: as §1, §2, §3, §4, §5, §6

SW-620 = test: NCI-60 screen, Colon Cancer
Description: as §1, §2, §3, §4, §5, §6

HCT-116 = test: NCI-60 screen, Colon Cancer
Description: as §1, §2, §3, §4, §5, §6

KM12 = test: NCI-60 screen, Colon Cancer
Description: as §1, §2, §3, §4, §5, §6

DU-145 = test: NCI-60 screen, Prostate Cancer
Description: as §1, §2, §3, §4, §5, §6

PC-3 = test: NCI-60 screen, Prostate Cancer
Description: as §1, §2, §3, §4, §5, §6

| Compound | Percent Growth (K-562) | Percent Growth (SR) | Percent Growth (HL-60(TB)) | Percent Growth (CCRF-CEM) | Percent Growth (MOLT-4) | Percent Growth (HOP-92) | Percent Growth (NCI-H322M) | Percent Growth (HOP-62) | Percent Growth (EKVX) | Percent Growth (NCI-H522) | Percent Growth (NCI-H460) | Percent Growth (NCI-H226) | Percent Growth (NCI-H23) | Percent Growth (OVCAR-3) | Percent Growth (OVCAR-4) | Percent Growth (OVCAR-5) | Percent Growth (OVCAR-8) | Percent Growth (NCI/ADR-RES) | Percent Growth (SK-OV-3) | Percent Growth (IGROV1) | also measured |
| --- | --- | --- | --- | --- | --- | --- | --- | --- | --- | --- | --- | --- | --- | --- | --- | --- | --- | --- | --- | --- | --- |
| NCCc1cc(Br)cc(C#Cc2cccc(C#Cc3cc(Br)cc(CCN)c3)c2)c1 [Compound A] | −45.67% | −43.87% | 6.88% | −12.43% | −43.65% | 73.03% | 53% | 21.99% | 62.48% | −78.21% | −49.11% | 108.9% | 94.81% | −35.66% | −28.5% | 60.77% | −14.54% | 23.97% | 94.37% | −4.832% | Percent Growth (A549/ATCC): −15.97%; Percent Growth (HT29): −89.31%; Percent Growth (SW-620): −73.58%; Percent Growth (HCT-116): −45.86%; Percent Growth (KM12): −87.53%; Percent Growth (DU-145): −83.92%; Percent Growth (PC-3): 45.26% |
| N=C(N)NCCCCC(=O)Nc1cc(C(F)(F)F)cc(NC(=O)Nc2ccc(NC(=O)Nc3cc(C(F)(F)F)cc(NC(=O)CCCCNC(=N)N)c3OC3CCNC3)cc2)c1OC1CCNC1 (centres unmarked) [Compound B] | 38.56% | 77.31% | 58.59% | 60.57% | 63.33% | 81.51% | 80.76% | 23.47% | 61.92% | −11.87% | 50.72% | 51.21% | 77.57% | 45.06% | 23.18% | 77.33% | 66.59% | 87.71% | 59.3% | 82.4% | Percent Growth (A549/ATCC): 49.78%; Percent Growth (HT29): 59.66%; Percent Growth (SW-620): 69.71%; Percent Growth (HCT-116): 45.1%; Percent Growth (KM12): 24.16%; Percent Growth (DU-145): 70.36%; Percent Growth (PC-3): 59.59% |
| N=C(N)NCCCCC(=O)Nc1cc(C(F)(F)F)cc(NC(=O)c2cc(C(=O)Nc3cc(C(F)(F)F)cc(NC(=O)CCCCNC(=N)N)c3SCCN)ncn2)c1SCCN [Compound C] | 4.995% | 28.12% | 30.11% | 24.46% | 45.62% | 93.99% | 83.13% | 37.78% | 59.82% | −26.87% | 28.72% | 63.82% | 80.24% | 37.56% | 38.79% | 75.78% | 39.11% | 55.27% | 82.66% | 51.71% | Percent Growth (A549/ATCC): 37.26%; Percent Growth (HT29): 17.03%; Percent Growth (SW-620): 34.39%; Percent Growth (HCT-116): 37.88%; Percent Growth (KM12): −39.48%; Percent Growth (DU-145): 62.89%; Percent Growth (PC-3): 77.68% |
| NCCCc1cccc(-c2ccc3sc4ccc(-c5cccc(CCCN)c5)cc4c3c2)c1 [Compound D] | 12.99% | 0% | 68.33% | 5.12% | 2.072% | 78.26% | 107% | 90.64% | 98.18% | 10.75% | 69.57% | 110.1% | 100.6% | 62.71% | 59.85% | 96.93% | 83.89% | 95.39% | 103.1% | 80.28% | Percent Growth (A549/ATCC): 72.71%; Percent Growth (HT29): 21.31%; Percent Growth (SW-620): 15.48%; Percent Growth (HCT-116): 0.5127%; Percent Growth (KM12): 42.09%; Percent Growth (DU-145): 55.35%; Percent Growth (PC-3): 73.6% |
| NCCCc1cccc(-c2ccc3oc4ccc(-c5cccc(CCCN)c5)cc4c3c2)c1 [Compound G] | 2.899% | −19.6% | 46.37% | 9.165% | −6.401% | 61.6% | 108.3% | 72.69% | 81.69% | 69.45% | 23.91% | 104.4% | 99.38% | 18.54% | 54.91% | 64.48% | 33.74% | 83.66% | 94.45% | 42.2% | Percent Growth (HT29): −51.14%; Percent Growth (SW-620): −7.997%; Percent Growth (HCT-116): −37.99%; Percent Growth (KM12): 14.01%; Percent Growth (DU-145): −23.65%; Percent Growth (PC-3): 54.99% |
